Assay results taken from PMC2409716 (British Journal of Cancer, 2004).
Read-outs that look alike come from different tables or passages of the source.

How the values were obtained:
[1] = design: method as in earlier work; settings: ref unpublished data, Johnson & Johnson Pharmaceutical Research and Development, cited from earlier work
[2] = system: patients with a solid malignancy; experiment: Phase I toxicity evaluation (NCI common toxicity criteria v2.0, DLT/MTD) of irinotecan with oral R115777; format: in vivo, human
Method: In the continuous regimen, R115777 was administered on days 3–21 of cycle 1, and then continuously thereafter, starting again on day 1 of subsequent cycles. In the intermittent regimen, R115777 was administered on days 3–14 of the first cycle, and then starting again on day 1 of subsequent cycles, but without administration on days 15–21.
Three patients were accrued at the starting dose level, and in the absence of DLT, another three patients were entered at the next dose level. For safety reasons, the next dose level was not opened until at least three patients were assessable for toxicity in the first cycle. In case only one patient developed DLT (see below), the dose level was expanded with additional patients to a total of six. […] The MTD (recommended dose) was defined as one dose level below the level at which ⩾2 of six patients experienced DLT.
Toxicity was assessed by the National Cancer Institute Version 2.0 common toxicity criteria on a scale graded 0–4 (Available: http://ctep.cancer.gov/reporti ng/ctc.html (accessed: February 27, 2004)). […] Tumours were assessed radiologically before patients were enrolled on the study, and after every even-numbered cycle. […]

[3] = system: UGT1A; settings: 2002, cited from earlier work
[4] = Noncompartmental plasma pharmacokinetics of R115777 with/without irinotecan; settings: for AUC12 h Ratio (R115777 with irinotecan to R115777 alone) / Cmax Ratio (R115777 with irinotecan to R115777 alone): least-squares means, 90% confidence limits in parentheses; for tmax: median
[5] = system: ABCB1 (P-glycoprotein); design: method as in earlier work; settings: ref unpublished data, Johnson & Johnson Pharmaceutical Research and Development, cited from earlier work
[6] = clinical; settings: human, plasma, po
[7] = system: CYP3A4; design: method as in Bohets, 1998; settings: human hepatic microsomal preparations; at in vitro concentrations five-fold higher than the peak concentrations observed in the present study; ref Bohets, 1998; cited from earlier work
[8] = human, in vivo
[9] = clinical; settings: human
[10] = human, in vivo, 350 mg
[11] = Noncompartmental plasma pharmacokinetics of irinotecan and SN-38 with/without R115777
[12] = Intermittent, oral R115777 200–400 mg b.i.d., dose-normalised to 200 mg, (+) Irinotecan 350 mg m^−2, mean±s.d., 12–13 patients
[13] = continuous, relative to monotherapy, not significant
[14] = intermittent regimens, not statistically significant
[15] = Continuous, (+) R115777 200 mg b.i.d. (cycle 2), irinotecan 200–350 mg m^−2, dose-adjusted to 350 mg m^−2, mean±s.d., 11–13 patients
[16] = preclinical studies, ref Gagne et al

CC(=O)O[C@@]12CO[C@@H]1C[C@H](O)[C@@]1(C)C(=O)[C@H](O)C3=C(C)[C@@H](OC(=O)[C@H](O)[C@@H](NC(=O)OC(C)(C)C)c4ccccc4)C[C@@](O)([C@@H](OC(=O)c4ccccc4)[C@H]21)C3(C)C [docetaxel]
plasma AUC of docetaxel ([1]; continuous R115777 (200 mg b.i.d.), subset of subjects): relatively unchanged
effect of R115777 on the systemic exposure to docetaxel ([1]; single-dose administration of R115777 (200 or 300 mg)): little effect

Cn1cncc1[C@@](N)(c1ccc(Cl)cc1)c1ccc2c(c1)c(-c1cccc(Cl)c1)cc(=O)n2C [R115777, (R)-6-[amino(4-chlorophenyl)(1-methyl-1H-imidazol-5-yl)methyl]-4-(3-chloro-phenyl)-1-methyl-2(1H)-quinolinone]
MTD (R115777 dose in the combination) ([2]; oral, 14 consecutive days in 21-day cycles, with irinotecan 350 mg m^−2 every 3 weeks): 300 mg b.i.d.
isozyme with a minor role in N-glucuronidation ([3]; ref Mannens et al): UGT1A3
prominent isozyme producing the N-glucuronide ([3]; ref Mannens et al): UGT1A4
AUC12 h Ratio (R115777 with irinotecan to R115777 alone) ([4]; Continuous): 101 (68–149) percent
Cmax Ratio (R115777 with irinotecan to R115777 alone) ([4]; Continuous): 93 (63–137) percent
Cmax ([4]; Continuous, oral R115777 200 mg b.i.d., (+) Irinotecan 200–350 mg m^−2, mean±s.d., 11–13 patients): 735 ± 377 ng/mL
AUC12 h Ratio (R115777 with irinotecan to R115777 alone) ([4]; Intermittent): 109 (93–127) percent
Cmax Ratio (R115777 with irinotecan to R115777 alone) ([4]; Intermittent): 106 (89–126) percent
AUC12 h [4, 12]: 3170 ± 1550 ng·h/mL
Cmax [4, 12]: 663 ± 296 ng/mL
tmax ([4]; Intermittent, oral R115777 200–400 mg b.i.d., (+) Irinotecan 350 mg m^−2, 12–13 patients): 2.0 h
tmax ([4]; Intermittent, oral R115777 200–400 mg b.i.d., (−) Irinotecan, 12–13 patients): 2.0 h
time at which peak plasma concentrations were observed ([4]; after oral administration, with or without co-administration of irinotecan): 2 h
decrease in the peak concentration in the combination therapy [4, 13]: 7.0%
increase in AUC in the combination therapy [4, 13]: 1.0%
increase in AUC following administration of irinotecan [4, 14]: 9.0%
increase in peak concentration following administration of irinotecan [4, 14]: 6.0%
inhibition of P-glycoprotein ([5]; at physiologically relevant concentrations): does not significantly inhibit
ABCB1 substrate ([5]; preliminary data): not likely to be a substrate
tmax [6]: 2.1 h
AUC(0-t) ([6]; 200 mg): 3240 ± 1590 ng·h/mL
Cmax ([6]; 200 mg): 840 ± 551 ng/mL
tmax ([6]; 200 mg): 2 h
effect on CYP3A4 activity [7]: inhibit CYP3A4 activity

CCc1c2c(nc3ccc(OC(=O)N4CCC(N5CCCCC5)CC4)cc13)-c1cc3c(c(=O)n1C2)COC(=O)[C@]3(O)CC [irinotecan]
MTD (irinotecan dose in the combination) ([2]; given every 3 weeks, with R115777 300 mg b.i.d. for 14 consecutive days): 350 mg m^−2
AUCcar Mean diff [8]: -1950 ± 641 ng·h/mL
AUClac Mean diff [8]: -269 ± 101 ng·h/mL
Cmax ([9]; in vivo): 3620 ± 632 ng/mL
AUC48 h [10]: 20 270±6020 ng h ml^−1

CCc1c2c(nc3ccc(O)cc13)-c1cc3c(c(=O)n1C2)COC(=O)[C@]3(O)CC [SN-38, 7-ethyl-10-hydroxycamptothecin]
AUC48 h [11, 15]: 569 ± 328 ng·h/mL
Cmax [11, 15]: 70.2 ± 49.6 ng/mL
Cmax ([11]; Continuous, (−) R115777 (cycle 1), irinotecan 200–350 mg m^−2, dose-adjusted to 350 mg m^−2, mean±s.d., 11–13 patients): 63.4 ± 37.4 ng/mL
AUC48 h ([11]; Intermittent, (+) R115777 200–400 mg b.i.d. (cycle 2), irinotecan 350 mg m^−2, mean±s.d., 13 patients): 375 ± 146 ng·h/mL
AUCcar Mean diff [8]: -26.7 ± 10.1 ng·h/mL
AUClac Mean diff [8]: -59.7 ± 34.7 ng·h/mL
REClac (relative extent of conversion, AUCSN-38/AUCirinotecan × 100%, lactone) [8]: 6.91±3.05%
REClac Mean diff [8]: −0.57±0.50%
RECtotal (relative extent of conversion, AUCSN-38/AUCirinotecan × 100%, total) [8]: 2.72±1.02%
RECtotal Mean diff [8]: −0.09±0.13%
isozymes with a minor role in glucuronidation [3, 16]: UGT1A6, UGT1A8, and UGT1A10
major isozymes involved in glucuronidation [3, 16]: UGT1A1, UGT1A7, and UGT1A9
half-life ([9]; in vivo): 13.4 ± 4.44 h
half-life ([9]; in vivo, 350 mg): 18.1 ± 13.1 h
Cmax ([9]; plasma, intravenous): 41.5 ± 20.1 ng/mL
AUC(0-t) ([9]; plasma, intravenous, 350 mg): 326 ± 134 ng·h/mL
